Source: PubChem BioAssay (NCI)
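Following 48 hours of exposure in 96-well plates, responses at five concentrations were used to interpolate endpoints linearly. At the TGI there is no net growth.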

Legend:
Assay in all cases: inhibition of tumour cell growth, NCI panel, 48 h
PC-3 prostate = tested on: PC-3 prostate
HOP-62 NSCLC = tested on: HOP-62 NSCLC
IGROV1 ovarian = tested on: IGROV1 ovarian
RXF 393 renal = tested on: RXF 393 renal
SF-268 CNS = tested on: SF-268 CNS
OVCAR-3 ovarian = tested on: OVCAR-3 ovarian
HT29 colon = tested on: HT29 colon
786-0 renal = tested on: 786-0 renal
SW-620 colon = tested on: SW-620 colon
SK-MEL-28 melanoma = tested on: SK-MEL-28 melanoma
NCI-H460 lung = tested on: NCI-H460 lung
UACC-257 melanoma = tested on: UACC-257 melanoma
MALME-3M melanoma = tested on: MALME-3M melanoma
M14 melanoma = tested on: M14 melanoma
ACHN renal = tested on: ACHN renal
K-562 leukemia = tested on: K-562 leukemia
HS 578T breast = tested on: HS 578T breast
EKVX NSCLC = tested on: EKVX NSCLC
CAKI-1 renal = tested on: CAKI-1 renal
SK-MEL-5 melanoma = tested on: SK-MEL-5 melanoma
CCRF-CEM leukemia = tested on: CCRF-CEM leukemia
T-47D breast = tested on: T-47D breast
LOX IMVI melanoma = tested on: LOX IMVI melanoma
MDA-MB-435 = tested on: MDA-MB-435
OVCAR-5 ovarian = tested on: OVCAR-5 ovarian
U251 CNS = tested on: U251 CNS
MOLT-4 leukemia = tested on: MOLT-4 leukemia
NCI-H226 lung = tested on: NCI-H226 lung
A549 NSCLC = tested on: A549 NSCLC
COLO 205 colon = tested on: COLO 205 colon
MCF7 breast = tested on: MCF7 breast
BT-549 breast = tested on: BT-549 breast
OVCAR-4 ovarian = tested on: OVCAR-4 ovarian
NCI-H522 lung = tested on: NCI-H522 lung
KM12 colon = tested on: KM12 colon
SF-295 CNS = tested on: SF-295 CNS
SN12C renal = tested on: SN12C renal
SNB-19 CNS = tested on: SNB-19 CNS
NCI/ADR-RES ovarian = tested on: NCI/ADR-RES ovarian
MDA-N = tested on: MDA-N
HL-60(TB) leukemia = tested on: HL-60(TB) leukemia
SNB-75 CNS = tested on: SNB-75 CNS
SK-OV-3 ovarian = tested on: SK-OV-3 ovarian
DU-145 prostate = tested on: DU-145 prostate
SF-539 CNS = tested on: SF-539 CNS
HCT-15 colon = tested on: HCT-15 colon
HCC-2998 colon = tested on: HCC-2998 colon
NCI-H23 lung = tested on: NCI-H23 lung
A498 renal = tested on: A498 renal
RPMI-8226 leukemia = tested on: RPMI-8226 leukemia
TK-10 renal = tested on: TK-10 renal
HCT-116 colon = tested on: HCT-116 colon
SK-MEL-2 melanoma = tested on: SK-MEL-2 melanoma
HOP-92 NSCLC = tested on: HOP-92 NSCLC
OVCAR-8 ovarian = tested on: OVCAR-8 ovarian
UO-31 renal = tested on: UO-31 renal
MDA-MB-231 breast = tested on: MDA-MB-231 breast
UACC-62 melanoma = tested on: UACC-62 melanoma
SR leukemia = tested on: SR leukemia

CC(C)N(C(C)C)S(=O)(=O)C[C@]12CC[C@H](CC13OCC(CS(=O)(=O)c1ccccc1)O3)C2(C)C (stereo partly drawn) gave a TGI (PC-3 prostate) of over 100 µM, a TGI (HOP-62 NSCLC) of over 100 µM and a TGI (IGROV1 ovarian) of over 59.5 µM. The TGI (RXF 393 renal) was over 100 µM, the TGI (SF-268 CNS) was over 100 µM and the TGI (OVCAR-3 ovarian) was over 70.8 µM. The TGI (HT29 colon) was over 100 µM, the TGI (786-0 renal) was over 100 µM and the TGI (SW-620 colon) was over 100 µM. For the same compound, the TGI (SK-MEL-28 melanoma) was over 100 µM, the TGI (NCI-H460 lung) was over 100 µM and the TGI (UACC-257 melanoma) was over 80.3 µM. It also gave a TGI (MALME-3M melanoma) of over 100 µM, a TGI (M14 melanoma) of over 100 µM and a TGI (ACHN renal) of over 100 µM. The TGI (K-562 leukemia) was over 100 µM, the TGI (HS 578T breast) was over 100 µM and the TGI (EKVX NSCLC) was over 100 µM. For the same compound, the TGI (CAKI-1 renal) was over 100 µM, the TGI (SK-MEL-5 melanoma) was over 100 µM and the TGI (CCRF-CEM leukemia) was over 100 µM. The TGI (T-47D breast) was over 100 µM, the TGI (LOX IMVI melanoma) was over 100 µM and the TGI (MDA-MB-435) was over 100 µM. It also gave a TGI (OVCAR-5 ovarian) of over 100 µM, a TGI (U251 CNS) of over 100 µM and a TGI (MOLT-4 leukemia) of 45.7 µM. For the same compound, the TGI (NCI-H226 lung) was over 100 µM, the TGI (A549 NSCLC) was over 100 µM and the TGI (COLO 205 colon) was 34.8 µM. It also gave a TGI (MCF7 breast) of over 100 µM, a TGI (BT-549 breast) of over 100 µM and a TGI (OVCAR-4 ovarian) of over 100 µM. It also gave a TGI (NCI-H522 lung) of over 100 µM, a TGI (KM12 colon) of over 100 µM and a TGI (SF-295 CNS) of over 83.8 µM. For the same compound, the TGI (SN12C renal) was over 100 µM, the TGI (SNB-19 CNS) was over 100 µM and the TGI (NCI/ADR-RES ovarian) was over 100 µM. It also gave a TGI (MDA-N) of over 100 µM, a TGI (HL-60(TB) leukemia) of 61.2 µM and a TGI (SNB-75 CNS) of over 100 µM. The TGI (SK-OV-3 ovarian) was over 100 µM, the TGI (DU-145 prostate) was over 100 µM and the TGI (SF-539 CNS) was over 100 µM. The TGI (HCT-15 colon) was over 100 µM, the TGI (HCC-2998 colon) was over 100 µM and the TGI (NCI-H23 lung) was over 100 µM. It also gave a TGI (A498 renal) of over 100 µM, a TGI (RPMI-8226 leukemia) of over 100 µM and a TGI (TK-10 renal) of 98.7 µM. The TGI (HCT-116 colon) was over 100 µM, the TGI (SK-MEL-2 melanoma) was over 100 µM and the TGI (HOP-92 NSCLC) was over 75.3 µM. For the same compound, the TGI (OVCAR-8 ovarian) was over 100 µM, the TGI (UO-31 renal) was over 100 µM and the TGI (MDA-MB-231 breast) was over 100 µM. For the same compound, the TGI (UACC-62 melanoma) was over 100 µM.

Compound CCOC(=O)c1cccc(NC(=O)CI)c1 has a TGI (PC-3 prostate) of 2.39 µM, a TGI (HOP-62 NSCLC) of 2.44 µM and a TGI (IGROV1 ovarian) of 1.02 µM. The TGI (RXF 393 renal) was 2.74 µM, the TGI (OVCAR-3 ovarian) was 0.759 µM and the TGI (HT29 colon) was 0.646 µM. It also gave a TGI (786-0 renal) of 0.307 µM, a TGI (SW-620 colon) of 1.64 µM and a TGI (SK-MEL-28 melanoma) of 5.86 µM. For the same compound, the TGI (NCI-H460 lung) was 3.77 µM, the TGI (UACC-257 melanoma) was 2.95 µM and the TGI (MALME-3M melanoma) was 2.98 µM. For the same compound, the TGI (M14 melanoma) was 0.664 µM, the TGI (ACHN renal) was 1.99 µM and the TGI (EKVX NSCLC) was 3.94 µM. The TGI (CAKI-1 renal) was 1.07 µM, the TGI (SK-MEL-5 melanoma) was 1.22 µM and the TGI (MDA-MB-435) was 0.797 µM. It also gave a TGI (SR leukemia) of 0.0918 µM, a TGI (OVCAR-5 ovarian) of 3.07 µM and a TGI (U251 CNS) of 1.35 µM. It also gave a TGI (MOLT-4 leukemia) of 0.221 µM, a TGI (A549 NSCLC) of 3.41 µM and a TGI (COLO 205 colon) of 1.86 µM. It also gave a TGI (MCF7 breast) of 1.33 µM, a TGI (BT-549 breast) of 1.48 µM and a TGI (OVCAR-4 ovarian) of 3.02 µM. The TGI (NCI-H522 lung) was 0.347 µM, the TGI (KM12 colon) was 3.66 µM and the TGI (SF-295 CNS) was 5.69 µM. The TGI (SN12C renal) was 0.731 µM, the TGI (SNB-19 CNS) was 9.39 µM and the TGI (NCI/ADR-RES ovarian) was 1.96 µM. It also gave a TGI (MDA-N) of 0.472 µM, a TGI (SNB-75 CNS) of 2.87 µM and a TGI (SK-OV-3 ovarian) of 2.26 µM. For the same compound, the TGI (DU-145 prostate) was 3.34 µM, the TGI (SF-539 CNS) was 1.31 µM and the TGI (HCC-2998 colon) was 4.34 µM. The TGI (NCI-H23 lung) was 0.521 µM, the TGI (A498 renal) was 4.72 µM and the TGI (RPMI-8226 leukemia) was 3.28 µM. For the same compound, the TGI (TK-10 renal) was 2.19 µM, the TGI (HCT-116 colon) was 0.946 µM and the TGI (SK-MEL-2 melanoma) was 2.4 µM. It also gave a TGI (HOP-92 NSCLC) of 3.57 µM, a TGI (OVCAR-8 ovarian) of 0.687 µM and a TGI (UO-31 renal) of 0.43 µM. It also gave a TGI (MDA-MB-231 breast) of 2.91 µM and a TGI (UACC-62 melanoma) of 1.87 µM.
